# Source: PubChem BioAssay (NCI)
#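 Results reflect a 48-hour exposure of cells in 96-well plates to compound at five concentrations. GI50 marks 50% less growth. Definition used: TGI = concentration required for complete inhibition of growth.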
# Key:
# Assay in all cases: NCI tumour cell line growth inhibition, 48 h
# [1] = test system: SK-MEL-5 melanoma
# [2] = test system: NCI-H460 lung
# [3] = test system: SF-539 CNS
# [4] = test system: HCT-15 colon
# [5] = test system: K-562 leukemia
# [6] = test system: HT29 colon
# [7] = test system: LOX IMVI melanoma
# [8] = test system: A549 NSCLC
# [9] = test system: SK-OV-3 ovarian
# [10] = test system: PC-3 prostate
SMILES,TGI [1] [µM],TGI [2] [µM],TGI [3] [µM],TGI [4] [µM],TGI [5] [µM],TGI [6] [µM],TGI [7] [µM],TGI [8] [µM],TGI [9] [µM],GI50 [1] [µM],GI50 [2] [µM],GI50 [4] [µM],GI50 [5] [µM],GI50 [10] [µM],TGI [10] [µM],GI50 [7] [µM],GI50 [8] [µM],GI50 [9] [µM],GI50 [6] [µM],GI50 [3] [µM]
CCN(CC)CCCNc1nccc2c(C)c3c(cc12)c1cnccc1n3C,1.82,0.14,0.609,0.779,1.04,1.02,0.268,1.37,2.73,,,,,,,,,,,
CC(C)(C)C1=CC(=C(P(=O)(O)O)P(=O)(O)O)C=C(C(C)(C)C)C1=O,> 50,> 50,> 50,> 50,> 50,> 50,> 50,> 50,> 50,,,,,,,,,,,
CC(=O)Nc1ccc(/C=C/C(=O)c2sc(-c3cccnc3)nc2C)cc1,> 100,> 100,> 100,> 100,> 100,> 100,> 100,> 100,> 100,,,,,,,,,,,
O=C(CCC(=O)Nc1ccc(Cl)c(Cl)c1)Cc1nc2ccccc2o1,> 100,> 100,> 100,> 100,> 100,> 100,> 100,> 100,> 100,,,,,,,,,,,
C=C[C@@H](C)[C@]1(C(=O)OC)CCCC12OCCO2,> 100,> 100,> 100,> 100,> 100,> 100,> 100,> 100,> 100,,,,,,,,,,,
COc1ccc(Nc2nc3cc(N)cc(N)c3nc2-c2ccccc2)cc1,28.6,89.9,,45,> 100,42.7,29.8,> 100,97.5,15.3,26.8,15.3,29.8,20.9,47.6,16.1,27.8,32.8,,
CCOC(=O)c1cc(C(=O)c2ccc(OC)cc2)n2ccc(/C=C/c3cc[n+](CC(=O)c4ccc(OC)cc4)cc3)cc12,,3.56,,> 100,3.31,4.55,3.66,> 100,> 100,,1.56,5.67,0.567,2.03,5.96,1.51,3.96,> 100,1.81,
CCOC(=O)Cc1c(C)c2cc(C(=O)c3ccccc3)c(O)cc2oc1=O,40,> 100,58.3,> 100,71.8,> 100,> 100,91.3,,,,,,,81.2,,,,,
CC(C)(O)C(O)COc1c2c(cc3oc(=O)ccc13)OCO2 (stereo unspecified),> 100,> 100,> 100,> 100,> 100,> 100,> 100,> 100,> 100,,,,,,,,,,,
CC1Cc2c(Cl)ncnc2N(C)c2ccc(Cl)cc21 (stereo unspecified),0.338,> 100,> 100,> 100,> 100,0.846,,> 100,12.9,0.185,0.381,0.331,0.496,0.386,> 100,,0.378,0.372,0.232,0.513
O=C(C(=O)c1cc2ccccc2[nH]1)c1cc2ccccc2[nH]1,> 347,> 347,> 347,> 347,> 347,> 347,> 347,> 347,> 347,,,,,,,,,,,
Cc1ccc(O)c(NC(=O)c2cccc(Nc3ccnc(C(F)(F)F)c3)c2)c1,14,35.3,25.7,42.8,,33.4,27.4,28,62,2.15,10.4,15.5,,11.4,38.5,9.46,5.09,16.6,15.7,12.5
O=C(/C=C\c1ccccc1O)c1ccc(O)cc1O,> 100,> 100,> 100,> 100,> 100,> 100,> 100,> 100,> 100,,,,,,,,,,,
C=CN(C(=O)N1CCN(c2cc3c(cc2F)c(=O)c(C(=O)O)cn3C2CC2)CC1)c1nc(-c2ccc(OC)cc2)cs1,4.78,> 100,7.78,> 100,> 100,> 100,> 100,> 100,,2.11,3.54,2.86,3.14,3.65,> 100,2.45,3.39,,3.42,2.8
OCC1C(OCc2ccccc2)C(OCc2ccccc2)C(OCc2ccccc2)CN1Cc1ccccc1 (stereo unspecified),,48.1,> 100,> 100,> 100,34.6,> 100,> 100,> 100,,,,,,88.1,,,,,
Cc1ccc(C)c(N2C(=O)C(=O)C(c3nc4ccccc4s3)/C(=N/N)C2=O)c1 (stereo unspecified),> 100,> 100,> 100,> 100,> 100,> 100,> 100,> 100,> 100,,,,,,,,,,,
CCc1cccc(C(C)C)c1NC(=O)C(=O)C1C(=O)Nc2ccccc2S1=O (stereo unspecified),> 100,> 100,> 100,> 100,,> 100,> 100,> 100,> 100,,,,,,> 100,,,,,
O=c1c2ccccc2sc2c(NCCCNCCO)nc3ccccc3c12,3.03,2.01,3.23,3.52,,2.97,2.82,3.41,7.31,1.64,0.605,1.57,,1.49,2.98,1.28,1.53,2.14,1.51,1.65
C=C(CCCCC)CN1CCCC1C(C)=O (stereo unspecified),33.2,> 85.3,> 100,> 100,51.5,> 100,65.3,> 100,> 100,,,,,,,,,,,
CCC[C@H]1O[C@@H]2CC(=O)O[C@@H]2C2=C1C(=O)C=CC2=O,36,> 100,33.6,32.4,> 46.5,43.3,39.8,> 58.1,> 56.3,,,,,,,,,,,
